# Where “and” joins values, the source holds several entries; their conditions need not be identical. Equal values may be shown once.
# System: participants with MDD
# Assay: MADRS total score, response, remission and relapse in MDD participants (Phase I/IIa study)
# Format: in vivo, human
# Conditions: for effect size, Cohen's d, versus placebo (MADRS): Day 21
# Source text: Cohorts 1, 4, 5, and 6 of the study was comprised of participants with MDD. Cohorts 2, 3, and the relative BA cohort of the study were comprised of normal healthy volunteers (NHV). […] MDD participants had been on a stable dose of antidepressant medication for at least one month prior to screening with an inadequate response to that antidepressant medication as judged by the Investigator, and continued to receive their prescribed antidepressant throughout the course of the study.
# Cohorts 4 and 5. For Cohorts 4 and 5, 12 participants each (24 participants total) were randomized in a 3:1 ratio to receive 12 mg of psilocin-d10 or matched placebo in a single dosing session on Day 1. Following a 21-day interval, all participants received a dose of 12 mg psilocin-d10 on Day 22 (second dose for participants originally randomized to psilocin-d10, first dose for participants randomized to placebo), and were followed to Day 42.
# Cohort 6. For Cohort 6, 12 participants were randomized in a 3:1 ratio to receive 16 mg of psilocin-d10 or matched placebo in a single dosing session on Day 1. Following a 21-day interval, all participants received a dose of 16 mg psilocin-d10 on Day 22 (second dose for participants originally randomized to psilocin-d10, first dose for participants randomized to placebo), and were followed to Day 42. Given the availability of data and considering that the secondary endpoint was a change in baseline to Day 21 in MADRS, efficacy data presented herein considers the data cut off of Day 21 postdose. One participant had to be withdrawn from the study due to pregnancy.
# The primary efficacy endpoint defined in the statistical analysis plan (SAP) is the change from baseline to Day 21 of the total Montgomery-Åsberg Depression Rating Scale (MADRS) score compared to placebo, therefore efficacy data presented herein considers the data cut off of Day 21 postdose. Mean total score and change from baseline on Montgomery-Åsberg Depression Rating Scale (MADRS) on days 1, 10, 17, 22, 31, 38, and 42 are presented as secondary efficacy endpoints.
# The secondary objective of the study was to evaluate the efficacy of psilocin-d10 in treating symptoms of MDD as measured by the change from baseline to Day 21 of the MADRS total score in the Intent-to-Treat population, with data analyzed according to the treatment group each participant was randomized to receive. Data from participants in Cohorts 4, 5, and 6 randomized to placebo was pooled for analysis purposes (N=9). Data from participants in Cohorts 4, 5, and 6 randomized to 12 mg or 16 mg psilocin-d10 (N=27) was also pooled for analysis.
# Data from the study was also analyzed according to dosage level of psilocin-d10. Data from participants in Cohorts 4, 5, and 6 randomized to placebo was pooled for analysis purposes (N=9). Data from participants in Cohorts 4 and 5 (treated with 12 mg psilocin-d10) was also pooled for analysis (N=18).
# The rates of remission, response, and relapse were also evaluated within the study. […] Additionally, 20.8% (5 out of 24) of participants in the psilocin-do group (12 mg and 16 mg combined) were in remission (remitters) (defined as a MADRS score of ≤10) compared to 0% for placebo at Day 21. The same 5 participants who were in remission were also classified as responders. None of the participants relapsed at Day 21 compared to baseline.
# The MADRS is a 10-item scale with ratings based on a clinical interview which moves from broadly phrased questions about symptoms to more detailed ones allowing a precise rating of severity. A rating scale from 0 to 6 is employed and the rater must decide whether the rating lies on defined scale steps (0, 2, 4, 6) or between them (1, 3, 5). The MADRS can be used for any time interval between ratings, be it weekly or otherwise, and the time interval should be recorded. […]
# [1] = Day 42, Cohort 4, two 12 mg doses
# [2] = Day 42, Cohort 5, two 12 mg doses
# [3] = Day 42, Cohort 6, two 16 mg doses
# [4] = Day 42, Cohorts 4 and 5, two 12 mg doses
# [5] = Day 42, Placebo/active group, one dose Day 22
# [6] = Day 42, Placebo/active group: one psilocin-d10 dose Day 22
# [7] = Day 42, two 12 mg doses (11 out of 14)
# [8] = Day 42, two 12 mg doses, Cohorts 4 and 5
# [9] = Day 42, two 16 mg doses, Cohort 6
# [10] = Day 42, two doses (Day 1, Day 22), 12 and 16 mg pooled
# [11] = Day 42, two doses, 12 and 16 mg pooled
# [12] = Day 42, two doses, pooled 12 mg and 16 mg
smiles,measurement,setting,value
"[2H]C([2H])([2H])N(C([2H])([2H])[2H])C([2H])([2H])C([2H])([2H])c1c[nH]c2cccc(O)c12 [psilocin-d10, 3-(2-(bis(methyl-d3)amino)ethyl-1,1,2,2-d4)-1H-indol-4-ol]",Relapse - Yes,[1],0 (0.0) n (%)
same,Remission (MADRS ≤10) - Yes,[1],5 (71.4) n (%)
same,Remission - No,[1],2 (28.6) n (%)
same,Response (≥50% reduction from baseline MADRS) - Yes,[1],5 (71.4) n (%)
same,Response - No,[1],2 (28.6) n (%)
same,Relapse - No,[2],8 (100.0) n (%)
same,Relapse - Yes,[2],0 (0.0) n (%)
same,Remission (MADRS ≤10) - Yes,[2],6 (85.7) n (%)
same,Remission - No,[2],1 (14.3) n (%)
same,Response (≥50% reduction from baseline MADRS) - Yes,[2],6 (85.7) n (%)
same,Response - No,[2],1 (14.3) n (%)
same,Relapse - No,[3],8 (100.0) n (%)
same,Relapse - Yes,[3],0 (0.0) n (%)
same,Remission (MADRS ≤10) - Yes,[3],4 (50.0) n (%)
same,Remission - No,[3],4 (50.0) n (%)
same,Response (≥50% reduction from baseline MADRS) - Yes,[3],6 (75.0) n (%)
same,Response - No,[3],2 (25.0) n (%)
same,Relapse - No,[4],15 (100.0) n (%)
same,Relapse - Yes,[4],0 (0.0) n (%)
same,Remission (MADRS ≤10) - Yes,[4],11 (78.6) n (%)
same,Remission - No,[4],3 (21.4) n (%)
same,Response (≥50% reduction from baseline MADRS) - Yes,[4],11 (78.6) n (%)
same,Response - No,[4],3 (21.4) n (%)
same,Relapse - No,[5],9 (100.0) n (%)
same,Relapse - Yes,[5],0 (0.0) n (%)
same,Remission - No,[5],5 (55.6) n (%)
same,Response (≥50% reduction from baseline MADRS) - Yes,[5],4 (44.4) n (%)
same,Response - No,[5],5 (55.6) n (%)
same,Remission (MADRS ≤10) - Yes,"Day 42, Placebo/active group, one dose Day 22 (pooled 12 mg and 16 mg)",4 (44.4) n (%)
same,"MADRS total score, Change from Baseline, Median",[6],−14.0
same,"MADRS total score, Observed, Median",[6],16.0
same,"MADRS total score, Change from Baseline, Mean","Day 42, Placebo/active group: one psilocin-d10 dose Day 22 (12 and 16 mg pooled)",−16.4
same,"MADRS total score, Observed, Mean","Day 42, Placebo/active group: placebo Day 1, one psilocin-d10 dose Day 22 (12 and 16 mg pooled)",15.1
same,participants in remission,"Day 42, after second dose, 12 mg and 16 mg combined (15 out of 22)",68.2%
same,participants with response,"Day 42, after second dose, 12 mg and 16 mg combined (17 out of 22)",77.3% and 77%
same,participants with response,"Day 42, placebo/psilocin-d10 group, first dose Day 22 (4 out of 9)",44.4%
same,participants in remission,[7],78.6%
same,participants with response,[7],78.6%
same,"MADRS total score, Change from Baseline, Mean",[8],−22.8
same,"MADRS total score, Change from Baseline, Median",[8],−25.5
same,"MADRS total score, Observed, Mean",[8],9.4
same,"MADRS total score, Observed, Median",[8],3.5
same,participants in remission,"Day 42, two 16 mg doses (4 out of 8)",50.0%
same,participants with response,"Day 42, two 16 mg doses (6 out of 8)",75%
same,"MADRS total score, Change from Baseline, Mean",[9],−17.6
same,"MADRS total score, Change from Baseline, Median",[9],−20.5
same,"MADRS total score, Observed, Mean",[9],13.0
same,"MADRS total score, Observed, Median",[9],11.5
same,"MADRS total score, Change from Baseline, Mean",[10],−20.9
same,"MADRS total score, Observed, Mean",[10],10.7
same,"MADRS total score, Change from Baseline, Median",[11],−24.5
same,"MADRS total score, Observed, Median",[11],7.0
same,Relapse - No,[12],22 (100.0) n (%)
same,Relapse - Yes,[12],0 (0.0) n (%)
same,Remission (MADRS ≤10) - Yes,[12],15 (68.2) n (%)
same,Remission - No,[12],7 (31.8) n (%)
same,Response (≥50% reduction from baseline MADRS) - Yes,[12],17 (77.3) n (%)
same,Response - No,[12],5 (22.7) n (%)
same,"MADRS, Difference in LS Means, 12 mg (two doses) compared to Placebo/active (one dose)","Day 42, 95% CI (−14.2, 7.5), P 0.5299",−3.34
same,"MADRS, Difference in LS Means, 12 mg compared to Cohort 6 (16 mg)","Day 42, 95% CI (−15.3, 22.5), P 0.6999",3.58
same,"MADRS, difference in LS means, 16 mg (two doses) versus Placebo/active (one dose)","Day 42, 95% CI −22.8, 7.2, p=0.2931",−7.79
same,participants meeting criteria for response,"Day 126, two 12 mg doses (Day 1, Day 22), N=15",73%
same,participants meeting criteria for remission,"Day 126, two 12 mg doses, N=15",60%
same,participants meeting criteria for response,"Day 126, two 16 mg doses (Day 1, Day 22), N=8",75%
same,participants meeting criteria for remission,"Day 126, two 16 mg doses, N=8",75%
same,"effect size, Cohen's d, versus placebo (MADRS)","single 12 mg dose, 95% CI: 0.92, 3.37",2.15
same,"effect size, Cohen's d, versus placebo (MADRS)",single 16 mg dose,2.54

# From patent US20240293367A1, “METHODS OF TREATING DISORDERS WITH A […]” (Cybin IRL Limited, priority 2023, published 2024)
